Active and inactive are the calls of the source. The rule behind the calls is not given here.
Assays:
RAW264.7 = experiment: Inhibition of LPS-induced NO production in mouse RAW264.7 cells after 24 hrs by Griess assay; format: functional, cell-based; conditions: RAW264.7, 24 h
HL-60 = experiment: Cytotoxicity against human HL60 cells assessed as reduction in cell viability up to 100 uM after 72 hrs by CCK-8 assay; format: functional, cell-based
DU-145 = experiment: Cytotoxicity against human DU145 cells assessed as reduction in cell viability up to 100 uM after 72 hrs by CCK-8 assay; format: functional, cell-based
U-937 [1] = experiment: Cytotoxicity against human U937 cells assessed as reduction in cell viability up to 100 uM after 72 hrs by CCK-8 assay; format: functional, cell-based
A549 = experiment: Cytotoxicity against human A549 cells assessed as reduction in cell viability up to 100 uM after 72 hrs by CCK-8 assay; format: functional, cell-based
Influenza A virus [2] = experiment: Antiviral activity against influenza A virus H3N2 assessed as inhibition of virus-induced cytopathic effect up to 100 uM after 48 hrs by crystal violet staining based assay; format: functional, organism-based
HeLa = experiment: Cytotoxicity against human HeLa cells assessed as reduction in cell viability up to 100 uM after 72 hrs by CCK-8 assay; format: functional, cell-based
K562 = experiment: Cytotoxicity against human K562 cells assessed as reduction in cell viability up to 100 uM after 72 hrs by CCK-8 assay; format: functional, cell-based
MCF7 = experiment: Cytotoxicity against human MCF7 cells assessed as reduction in cell viability up to 100 uM after 72 hrs by CCK-8 assay; format: functional, cell-based
Influenza A virus [3] = experiment: Antiviral activity against influenza A virus H1N1 assessed as inhibition of virus-induced cytopathic effect up to 100 uM after 48 hrs by crystal violet staining based assay; format: functional, organism-based
HT-29 [4] = experiment: Cytotoxicity against human HT-29 cells assessed as reduction in cell viability up to 100 uM after 72 hrs by CCK-8 assay; format: functional, cell-based
HT-29 [5] = experiment: Cytotoxicity against human HT-29 cells assessed as reduction in cell viability after 72 hrs by CCK-8 assay; format: functional, cell-based; conditions: HT-29, 72 h
U-937 [6] = experiment: Cytotoxicity against human U937 cells assessed as reduction in cell viability after 72 hrs by CCK-8 assay; format: functional, cell-based; conditions: U-937, 72 h

Compound: C[C@@H]1C[C@H]2[C@@H]3CCC4=CC(=O)C=C[C@]4(C)[C@@]3(F)[C@@H](O)C[C@]2(C)[C@@]1(O)C(=O)CO [DEXAMETHASONE]
- IC50 (RAW264.7): 2500 nM

Compound: C[C@H]1CC[C@]2(C)C(=CCC[C@H]2O)C=C1CO
- Activity (HL-60): inactive
- Activity (DU-145): inactive
- Activity (U-937 [1]): inactive
- Activity (A549): inactive
- inhibition (Influenza A virus [2]): inactive
- Activity (HeLa): inactive
- Activity (K562): inactive
- Activity (MCF7): inactive
- inhibition (Influenza A virus [3]): inactive
- Activity (HT-29 [4]): inactive

Compound: C[C@H]1CC[C@]2(C)C(=CCC[C@H]2O)C=C1C(=O)O
- Activity (HL-60): inactive
- Activity (DU-145): inactive
- Activity (U-937 [1]): inactive
- Activity (A549): inactive
- inhibition (Influenza A virus [2]): inactive
- Activity (HeLa): inactive
- Activity (K562): inactive
- Activity (MCF7): inactive
- inhibition (Influenza A virus [3]): inactive
- Activity (HT-29 [4]): inactive

Compound: C[C@H]1CC[C@@]2(C)C=CC(=O)C=C2C=C1C=O
- Activity (HL-60): inactive
- Activity (DU-145): inactive
- Activity (U-937 [1]): inactive
- Activity (A549): inactive
- inhibition (Influenza A virus [2]): inactive
- Activity (HeLa): inactive
- Activity (K562): inactive
- Activity (MCF7): inactive
- inhibition (Influenza A virus [3]): inactive
- Activity (HT-29 [4]): inactive

Compound: CC1=CC([C@@H](CCC(=O)O)C(=O)O)=C(C)CC[C@@H]1C
- Activity (HL-60): inactive
- Activity (DU-145): inactive
- Activity (U-937 [1]): inactive
- Activity (A549): inactive
- IC50 (RAW264.7): 18300 nM
- inhibition (Influenza A virus [2]): inactive
- Activity (HeLa): inactive
- Activity (K562): inactive
- Activity (MCF7): inactive
- inhibition (Influenza A virus [3]): inactive
- Activity (HT-29 [4]): inactive

Compound: CC1=CC([C@@H](CCCO)C(=O)O)=C(C)CC[C@@H]1C
- Activity (HL-60): inactive
- Activity (DU-145): inactive
- Activity (U-937 [1]): inactive
- Activity (A549): inactive
- IC50 (RAW264.7): 14600 nM
- inhibition (Influenza A virus [2]): inactive
- Activity (HeLa): inactive
- Activity (K562): inactive
- Activity (MCF7): inactive
- inhibition (Influenza A virus [3]): inactive
- Activity (HT-29 [4]): inactive

Compound: C[C@H]1CC[C@@]2(C)C=CC(=O)C=C2C=C1C(=O)O
- Activity (HL-60): inactive
- Activity (DU-145): inactive
- Activity (U-937 [1]): inactive
- Activity (A549): inactive
- inhibition (Influenza A virus [2]): inactive
- Activity (HeLa): inactive
- Activity (K562): inactive
- Activity (MCF7): inactive
- inhibition (Influenza A virus [3]): inactive
- Activity (HT-29 [4]): inactive

Compound: C[C@H]1CC[C@@]2(C)C=CC(=O)C=C2C=C1CO
- Activity (HL-60): inactive
- Activity (DU-145): inactive
- Activity (U-937 [1]): inactive
- Activity (A549): inactive
- inhibition (Influenza A virus [2]): inactive
- Activity (HeLa): inactive
- Activity (K562): inactive
- Activity (MCF7): inactive
- inhibition (Influenza A virus [3]): inactive
- Activity (HT-29 [4]): inactive

Compound: COC(OC)C1=CC2=CC(=O)C=C[C@]2(C)CC[C@@H]1C
- Activity (HL-60): inactive
- Activity (DU-145): inactive
- Activity (U-937 [1]): inactive
- Activity (A549): inactive
- inhibition (Influenza A virus [2]): inactive
- Activity (HeLa): inactive
- Activity (K562): inactive
- Activity (MCF7): inactive
- inhibition (Influenza A virus [3]): inactive
- Activity (HT-29 [4]): inactive

Compound: CC(=O)O[C@H]1C(=O)[C@@]2(C)[C@H]([C@H](OC(=O)c3ccccc3)[C@]3(O)C[C@H](OC(=O)[C@H](O)[C@@H](NC(=O)c4ccccc4)c4ccccc4)C(C)=C1C3(C)C)[C@]1(OC(C)=O)CO[C@@H]1C[C@@H]2O [PACLITAXEL]
- IC50 (HT-29 [5]): 3 nM
- IC50 (U-937 [6]): 1.7 nM

Compound: CC1=CC[C@@]2(C)[C@H](O)CC[C@@H](C(=O)O)[C@@H]2C=C1C
- Activity (HL-60): inactive
- Activity (DU-145): inactive
- Activity (U-937 [1]): inactive
- Activity (A549): inactive
- inhibition (Influenza A virus [2]): inactive
- Activity (HeLa): inactive
- Activity (K562): inactive
- Activity (MCF7): inactive
- inhibition (Influenza A virus [3]): inactive
- Activity (HT-29 [4]): inactive
